Measured values as given in ChEMBL document CHEMBL5029193, “Design of Coibamide A Mimetics with Improved Cellular Bioactivity” (ACS Med Chem Lett, 2022).
Where a SMILES comes first, the peptide text is derived from it. Bridges are numbered along the chain shown (N, C = ends). [ ]: non-standard residue; d: D form. The star is where a group is joined. Bip = N[C@@H](Cc1ccc(-c2ccccc2)cc1)C(=O)O; dNMeaIle = CC[C@H](C)[C@@H](NC)C(=O)O; NMe2Val = CC(C)[C@@H](C(=O)*)N(C)C; NMeLys(Me) = CNCCCC[C@H](NC)C(=O)O; NMeI = CC[C@H](C)[C@H](NC)C(=O)O; NMeT = CN[C@H](C(=O)O)[C@@H](C)O; 2Pal = N[C@@H](Cc1ccccn1)C(=O)O; 3Pal = N[C@@H](Cc1cccnc1)C(=O)O; 4Pal = N[C@@H](Cc1ccncc1)C(=O)O; NMeL = CN[C@@H](CC(C)C)C(=O)O; NMeOrn = CN[C@@H](CCCN)C(=O)O; dNMeOrn = CN[C@H](CCCN)C(=O)O; dHiv = CC(C)[C@@H](O)C(=O)O; NMeS = CN[C@@H](CO)C(=O)O; NMeA = CN[C@@H](C)C(=O)O; dNMeA = CN[C@H](C)C(=O)O

System: A549
Assay: Cytotoxicity against human A549 cells assessed as cell growth inhibition incubated for 72 hrs by MTS assay
Format: functional, cell-based
Conditions: A549, 72 h

Structure (SMILES)	IC50 [µM]
CC[C@H](C)[C@H]1C(=O)N[C@@H](C)C(=O)N(C)[C@@H](CC(C)C)C(=O)N[C@@H](Cc2ccc(OC)cc2)C(=O)N(C)CCCC[C@H](N(C)C(=O)[C@H](CC(C)C)NC(=O)[C@H](C)N(C)C(=O)[C@H](OC(=O)[C@H](C(C)C)N(C)C)C(C)C)C(=O)N(C)[C@@H](C)C(=O)N1C (NMe2Val-[dHiv][NMeA]L[NMeLys(Me)][NMeA][NMeI]A[NMeL]Y(Me); lactam 4-C)	3.4
CC[C@H](C)[C@@H]1NC(=O)[C@H](C)N(C)C(=O)[C@@H](N(C)C(=O)[C@H](CC(C)C)N(C)C(=O)[C@H](C)N(C)C(=O)[C@H](OC(=O)[C@H](C(C)C)N(C)C)C(C)C)CCCCN(C)C(=O)[C@H](Cc2ccc(OC)cc2)NC(=O)[C@H](CC(C)C)N(C)C(=O)[C@H](C)NC1=O (NMe2Val-[dHiv][NMeA][NMeL][NMeLys(Me)][NMeA]IA[NMeL]Y(Me); lactam 4-C)	> 10
CC[C@H](C)[C@H]1C(=O)N[C@@H](C)C(=O)N(C)[C@@H](CC(C)C)C(=O)N[C@@H](Cc2ccccn2)C(=O)N(C)CCCC[C@H](N(C)C(=O)[C@H](CC(C)C)N(C)C(=O)[C@H](C)N(C)C(=O)[C@H](OC(=O)[C@H](C(C)C)N(C)C)C(C)C)C(=O)N(C)[C@@H](C)C(=O)N1C (NMe2Val-[dHiv][NMeA][NMeL][NMeLys(Me)][NMeA][NMeI]A[NMeL][2Pal]; lactam 4-C)	> 10
CC[C@H](C)[C@H]1C(=O)N[C@@H](C)C(=O)N(C)[C@@H](CC(C)C)C(=O)N[C@@H](Cc2cccnc2)C(=O)N(C)CCCC[C@H](N(C)C(=O)[C@H](CC(C)C)N(C)C(=O)[C@H](C)N(C)C(=O)[C@H](OC(=O)[C@H](C(C)C)N(C)C)C(C)C)C(=O)N(C)[C@@H](C)C(=O)N1C (NMe2Val-[dHiv][NMeA][NMeL][NMeLys(Me)][NMeA][NMeI]A[NMeL][3Pal]; lactam 4-C)	> 10
CC[C@H](C)[C@H]1C(=O)N[C@@H](C)C(=O)N(C)[C@@H](CC(C)C)C(=O)N[C@@H](Cc2ccncc2)C(=O)N(C)CCCC[C@H](N(C)C(=O)[C@H](CC(C)C)N(C)C(=O)[C@H](C)N(C)C(=O)[C@H](OC(=O)[C@H](C(C)C)N(C)C)C(C)C)C(=O)N(C)[C@@H](C)C(=O)N1C (NMe2Val-[dHiv][NMeA][NMeL][NMeLys(Me)][NMeA][NMeI]A[NMeL][4Pal]; lactam 4-C)	> 10
CC[C@H](C)[C@H]1C(=O)N[C@@H](C)C(=O)N(C)[C@@H](CC(C)C)C(=O)N[C@H](Cc2ccc(OC)cc2)C(=O)N(C)CCCC[C@H](N(C)C(=O)[C@H](CC(C)C)N(C)C(=O)[C@H](C)N(C)C(=O)[C@H](OC(=O)[C@H](C(C)C)N(C)C)C(C)C)C(=O)N(C)[C@@H](C)C(=O)N1C (NMe2Val-[dHiv][NMeA][NMeL][NMeLys(Me)][NMeA][NMeI]A[NMeL][dY](Me); lactam 4-C)	> 10
CC[C@H](C)[C@H]1C(=O)N[C@H](C)C(=O)N(C)[C@@H](CC(C)C)C(=O)N[C@@H](Cc2ccc(OC)cc2)C(=O)N(C)CCCC[C@H](N(C)C(=O)[C@H](CC(C)C)N(C)C(=O)[C@H](C)N(C)C(=O)[C@H](OC(=O)[C@H](C(C)C)N(C)C)C(C)C)C(=O)N(C)[C@@H](C)C(=O)N1C (NMe2Val-[dHiv][NMeA][NMeL][NMeLys(Me)][NMeA][NMeI][dA][NMeL]Y(Me); lactam 4-C)	> 10
CC[C@H](C)[C@@H]1C(=O)N[C@@H](C)C(=O)N(C)[C@@H](CC(C)C)C(=O)N[C@@H](Cc2ccc(OC)cc2)C(=O)N(C)CCCC[C@H](N(C)C(=O)[C@H](CC(C)C)N(C)C(=O)[C@H](C)N(C)C(=O)[C@H](OC(=O)[C@H](C(C)C)N(C)C)C(C)C)C(=O)N(C)[C@@H](C)C(=O)N1C (NMe2Val-[dHiv][NMeA][NMeL][NMeLys(Me)][NMeA][dNMeaIle]A[NMeL]Y(Me); lactam 4-C)	> 10
CC[C@H](C)[C@H]1C(=O)N[C@@H](C)C(=O)N(C)[C@@H](CC(C)C)C(=O)N[C@@H](Cc2ccc(OC)cc2)C(=O)N(C)CCCC[C@H](N(C)C(=O)[C@H](CC(C)C)N(C)C(=O)[C@H](C)N(C)C(=O)[C@H](OC(=O)[C@H](C(C)C)N(C)C)C(C)C)C(=O)N(C)[C@H](C)C(=O)N1C (NMe2Val-[dHiv][NMeA][NMeL][NMeLys(Me)][dNMeA][NMeI]A[NMeL]Y(Me); lactam 4-C)	> 10
CC[C@H](C)[C@H]1C(=O)N[C@@H](C)C(=O)N(C)[C@@H](CC(C)C)C(=O)N[C@@H](Cc2ccc(OC)cc2)C(=O)NCCC[C@H](N(C)C(=O)[C@H](CC(C)C)N(C)C(=O)[C@H](C)N(C)C(=O)[C@H](OC(=O)[C@H](C(C)C)N(C)C)C(C)C)C(=O)N(C)[C@@H](C)C(=O)N1C (NMe2Val-[dHiv][NMeA][NMeL][NMeOrn][NMeA][NMeI]A[NMeL]Y(Me); lactam 4-C)	> 10
CC[C@H](C)[C@H]1C(=O)N[C@@H](C)C(=O)N(C)[C@@H](CC(C)C)C(=O)N[C@@H](Cc2ccc(OC)cc2)C(=O)NCCC[C@@H](N(C)C(=O)[C@H](CC(C)C)N(C)C(=O)[C@H](C)N(C)C(=O)[C@H](OC(=O)[C@H](C(C)C)N(C)C)C(C)C)C(=O)N(C)[C@@H](C)C(=O)N1C (NMe2Val-[dHiv][NMeA][NMeL][dNMeOrn][NMeA][NMeI]A[NMeL]Y(Me); lactam 4-C)	> 10
CC[C@H](C)[C@H]1C(=O)N[C@@H](C)C(=O)N(C)[C@@H](CC(C)C)C(=O)N[C@@H](Cc2ccc(-c3ccccc3)cc2)C(=O)N(C)[C@H](C)C(=O)O[C@H](C)[C@H](N(C)C(=O)[C@H](CC(C)C)N(C)C(=O)[C@H](COC)N(C)C(=O)[C@H](OC(=O)[C@H](C(C)C)N(C)C)C(C)C)C(=O)N(C)[C@@H](COC)C(=O)N1C (NMe2Val-[dHiv][NMeS](Me)[NMeL][NMeT][NMeS](Me)[NMeI]A[NMeL][Bip][dNMeA]; ester 4-C)	0.00011
